Measured values published in patent US5071849A, “Dihydropyrimidothiazine derivatives” (priority 1989, dated 1991).
Where two headings read alike, the source gives them in different places.

Columns and labels:
in vivo = conditions: mouse, po
Protocol: White mice belonging to the CFLP strain (body weight 18-22 g; both male and female) are used, 10 animals for each dose. The test compound is administered orally in a volume of 20 ml/kg. […] The mice are kept in a plastic cage at room temperature. The animals get tap water and standard mouse fodder ad libitum.

[1] = system: experimental coronaria insufficiency induced with vasopressin; test: Antianginal effect: vasopressin-induced experimental coronaria insufficiency, ECG wave T; format: in vivo; conditions: Rattus norvegicus; rats, iv., 2 minutes prior to vasopressin
Protocol: Male rats of 180-220 g body weight were narcotised with chloralese-urethane (70/700 mg/kg ip.). The ECG was registered with needle electrodes in standard II leading. The experimental coronaria insufficiency was induced with vasopressin (4 NE/kg i.v.). The height of wave T in ECG was measured before and after the administration of vasopressin in both the control and treated groups. Test compounds were administered intravenously 2 minutes prior to the treatment with vasopressin.

[2] = system: carrageen - induced oedema; test: Inhibition of carrageen-induced oedema on rats; format: in vivo; conditions: for ED30: Rattus norvegicus, po, read-out: ID30 (dose resulting in an inhibition of 30%); for Therapeutical index: Table III, LD50 and ID30
Protocol: The antiinflammatory effect of the novel compounds of the invention was investigated on rats weighing 150 to 180 g. 0.1 ml of a 1 per cent carrageen suspension was injected subcutaneously into the plantar region of one of the hind paws. Rats were fasted for 12 hours and received drinking water ad libitum. One hour before treatment with the test compound animals were hydrated orally with 30 ml/kg of tap water. The test compounds or the vehicle were administered p.o. in a volume of 10 ml/kg, then two hours later carrageen was applied. The volume of the treated paw was measured by mercury-plethysmometer before and 3 hours after injection in such a way that displacement of the liquid arising from the volume alteration was indicated on a millimeter scale. The volumes of the treated paws were compared with those of the control group.

Hexobarbital narcosis = Hexobarbital narcosis on mice; format: in vivo; conditions: for ED50: Mus musculus, po, mice, p.o., 1 hour before Hexobarbital 40 mg/kg i.v., sleeping time more than 2.5 times longer than control; for Therapeutical index: Table IV, hexobarbital narcosis on mice
Protocol: Groups consisting of 6 mice are used for each dose. The animals are treated orally with the test compound, whereby sleeping is induced 1 hour later by administering a 40 mg/kg i.v. dose of Hexobarbital both to the test and control groups.
ED50 values are calculated from the thus-transformed data.

[3] = rats, p.o., two hours before carrageen, paw volume 3 hours after injection

Row | Compound | LD50 at 336 h (in vivo) | ED30 [2, 3] | Therapeutical index [2] | further results
1 | COC(=O)C1=C(C)N=C2SCC(C)CN2C1c1ccc(Cl)c([N+](=O)[O-])c1 (stereo not drawn) [Example 9] | > 1000 mg/kg | – | – | –
2 | CCOC(=O)C1=C(c2ccccc2)N=C2SCCCN2C1c1ccc(OC)cc1 (stereo not drawn) [Example 19, Ethyl-[8-phenyl-6-(4-methoxyphenyl)-3,4-dihydro-2H,6H-pyrimido[2,1-b][1,3]thiazine-7-carboxylate]] | – | – | – | ED50 [1]: 1.45 mg/kg
3 | COC(=O)C1=C(C)N=C2SCCCN2C1c1ccccc1OC (stereo not drawn) [Example 25, Methyl-[8-methyl-6-(2-methoxyphenyl)-3,4-dihydro-2H,6H-pyrimido[2,1-b][1,3]thiazine-7-carboxylate]] | 100 to 500 mg/kg | 10 mg/kg | 10-50 | –
4 | CCOC(=O)C1=C(C)N=C2SCCCN2C1c1ccc(Cl)c(Cl)c1 (stereo not drawn) [Example 3, Ethyl-[6-(3,4-dichlorophenyl)-8-methyl-3,4-dihydro-2H,6H-pyrimido[2,1-b][1,3]thiazine-7-carboxylate]] | 1000 mg/kg | – | – | –
5 | CCOC(=O)C1=C(c2ccccc2)N=C2SCCCN2C1c1ccc([N+](=O)[O-])cc1 (stereo not drawn) [Example 13, Ethyl-[8-phenyl-6-(4-nitrophenyl)-3,4-dihydro-2H,6H-pyrimido[2,1-b][1,3]thiazine-7-carboxylate]] | 1000 mg/kg | – | – | ED50 (Hexobarbital narcosis): ~200 mg/kg; Therapeutical index (Hexobarbital narcosis): 5.0
6 | CCCCC1C(=O)N(c2ccccc2)N(c2ccccc2)C1=O [Phenylbutazone, reference compound] | – | 40 mg/kg | – | –
7 | CC(Cc1ccccc1)NCCC(c1ccccc1)c1ccccc1 (stereo not drawn) [Prenylamine, reference compound] | – | – | – | ED50 [1]: 6.5 mg/kg
8 | COc1ccc2c(c1)c(CC(=O)O)c(C)n2C(=O)c1ccc(Cl)cc1 [Indomethacin, reference compound] | – | – | 7.3 | ED30 ([2]; 3 h): 3 mg/kg
9 | CCOC(=O)C1=C(C)N=C2SCCCN2C1c1ccc(N(C)C)cc1 (stereo not drawn) [Example 22, Ethyl-[6-(4-dimethylaminophenyl)-8-methyl-3,4-dihydro-2H,6H-pyrimido[2,1-b][1,3]thiazine-7-carboxylate]] | 700 mg/kg | 10 mg/kg | 70 | –
10 | CC1=C(C(=O)Nc2ccccc2)C(c2ccccc2)N2CCCSC2=N1 (stereo not drawn) [Example 5, 6-Phenyl-8-methyl-3,4-dihydro-2H,6H-pyrimido[2,1-b][1,3]thiazine-7-carboxylic anilide] | 700 mg/kg | – | – | –
11 | COC(=O)C1=C(C)N=C2SCCCN2C1c1cc(OC)c(OC)c(OC)c1 (stereo not drawn) [Example 18, Methyl-[8-methyl-6-(3,4,5-trimethoxyphenyl)-3,4-dihydro-2H,6H-pyrimido[2,1-b][1,3]thiazine-7-carboxylate]] | > 1000 mg/kg | 110 mg/kg | > 9.1 | –
12 | CCOC(=O)C1=C(C)N=C2SCCCN2C1c1ccccc1 (stereo not drawn) [Example 1, Ethyl-(6-phenyl-8-methyl-3,4-dihydro-2H,6H-pyrimido-[2,1-b][1,3]thiazine-7-carboxylate)] | 580 mg/kg | – | – | –
13 | COC(=O)C1=C(C)N=C2SCC(C)CN2C1c1cccc([N+](=O)[O-])c1 (stereo not drawn) [Example 10] | > 1000 mg/kg | – | – | ED50 (Hexobarbital narcosis): 39 mg/kg; Therapeutical index (Hexobarbital narcosis): 25.6
14 | COC(=O)C1=C(C)N=C2SCCCN2C1c1cccc([N+](=O)[O-])c1 (stereo not drawn) [Example 4, Methyl-[6-(3-nitrophenyl)-8-methyl-3,4-dihydro-2H,6H-pyrimido[2,1-b][1,3]thiazine-7-carboxylate]] | 370 mg/kg | – | – | –
15 | CCOC(=O)C1=C(C)N=C2SCCCN2C1c1ccc(Br)cc1 (stereo not drawn) [Example 11, Ethyl-[6-(4-bromophenyl)-8-methyl-3,4-dihydro-2H,6H-pyrimido[2,1-b][1,3]thiazine-7-carboxylate]] | > 1000 mg/kg | – | – | ED50 (Hexobarbital narcosis): ~200 mg/kg; Therapeutical index (Hexobarbital narcosis): 5.0
16 | COC(=O)C1=C(C)N=C2SCCCN2C1c1ccc(OC)cc1 (stereo not drawn) [Example 15, Methyl-[8-methyl-6-(4-methoxyphenyl)-3,4-dihydro-2H,6H-pyrimido[2,1-b][1,3]thiazine-7-carboxylate]] | > 1000 mg/kg | 70 mg/kg | > 14.3 | –
17 | CCOC(=O)C1=C(c2ccccc2)N=C2SCCCN2C1c1c(F)cccc1Cl (stereo not drawn) [Example 12] | > 1000 mg/kg | – | – | –
18 | CC(=O)Nc1ccc(O)cc1 [Paracetamol, reference compound] | 1180 mg/kg | 200 mg/kg | 5.9 | –
19 | COC(=O)C1=C(C)N=C2SCCCN2C1c1ccc(Cl)c(Cl)c1 (stereo not drawn) [Example 16, Methyl-[6-(3,4-dichlorophenyl)-8-methyl-3,4-dihydro-2H,6H-pyrimido[2,1-b][1,3]thiazine-7-carboxylate]] | 1000 mg/kg | 120 mg/kg | 8.3 | ED50 [1]: ~0.81 mg/kg
20 | COC(=O)C1=C(C)N=C2SCCCN2C1c1ccc(Cl)c([N+](=O)[O-])c1 (stereo not drawn) [Example 8] | 700 mg/kg | – | – | ED50 [1]: 1.21 mg/kg
21 | CC(=O)Oc1ccccc1C(=O)O [Acetylsalicylic acid, reference compound] | – | – | 6.8 | ED30 ([2]; 3 h): 200 mg/kg
22 | CCOC(=O)C1=C(C)N=C2SCCCN2C1c1c(F)cccc1Cl (stereo not drawn) [Example 2, Ethyl-[6-(2-fluoro-6-chlorophenyl)-8-methyl-3,4-dihydro-2H,6H-pyrimido[2,1-b][1,3]thiazine-7-carboxylate]] | 170 mg/kg | – | – | –
23 | CCOC(=O)C1=C(C)N=C2SCCCN2C1c1ccc(OC)cc1 (stereo not drawn) [Example 7, Ethyl-[8-methyl-6-(4-methoxyphenyl)-3,4-dihydro2H,6H-pyrimido[2,1-b][1,3]thiazine-7-carboxylate]] | 600 mg/kg | – | – | ED50 [1]: 1.87 mg/kg
24 | CCCC(C)(COC(N)=O)COC(N)=O [Meprobamate, reference compound] | – | – | – | ED50 (Hexobarbital narcosis): 260 mg/kg; Therapeutical index (Hexobarbital narcosis): 4.2
25 | COC(=O)C1=C(C)N=C2SCCCN2C1C (stereo not drawn) [Example 14, Methyl-(6,8-dimethyl-3,4-dihydro-2H,6H-pyrimido-[2,1-b][1,3]thiazine-7-carboxylate)] | 400 mg/kg | 10 mg/kg | 40 | –
26 | CC1=C(C(=O)Nc2ccccc2)C(c2c(F)cccc2Cl)N2CCCSC2=N1 (stereo not drawn) [Example 6, 6-(2-Fluoro-6-chlorophenyl)-8-methyl-3,4-dihydro-2H,6H-pyrimido[2,1-b][1,3]thiazine-7-carboxylic anilide] | > 1000 mg/kg | – | – | ED50 (Hexobarbital narcosis): 25 mg/kg; Therapeutical index (Hexobarbital narcosis): 40.0
